Data: US20250099466A1 (BRISTOL-MYERS SQUIBB COMPANY, priority 2021, published 2025)
Oligonucleotides are written 5' to 3', each unit as a sugar letter and its base; * is a phosphorothioate linkage, no mark a phosphodiester; rarer units and linkages stand in square brackets, end groups in braces. Plain capitals give the bases only. e = 2'-O-(2-methoxyethyl) (MOE); [5mC] = 5-methylcytosine; d = 2'-deoxy (DNA)

Tested on: electrically induced carotid artery thrombosis (ECAT) in rabbits; rabbit FXI mRNA
Test: Rabbit ECAT model after FXI antisense oligonucleotide treatment
Type: in vivo
Conditions: subcutaneous twice weekly for 4 weeks
Description: The rabbit ECAT model, described by Wong et al. was used in the rabbit ECAT study (Wang et al. J. Pharmacol. Exp. Ther. 295:212-8, 2002). The ECAT model was conducted 3 to 4 days after the last dose of vehicle, FXI-ASO2, or FXI-ASO1. FXI-ASO1 has the nominal nucleotide sequence of […] (SEQ ID NO: 1) and is complementary to a sequence within rabbit FXI mRNA. FXI-ASO2 (control ASO) has the nominal nucleotide sequence of […] (SEQ ID NO: 2) and has no known complementary sequence in rabbit mRNA. Oligonucleotides were chemically modified with phosphorothioate in the backbone and 2′-O-methoxyethyl on the wings with a central deoxy gap (so-called 5-10-5 design). Cytosine bases were rendered as 5-methylcytosine.
Separate samples for each dose of FXI-ASO1 and FXI-ASO2 were weighed on an analytical balance. […]
Male New Zealand White rabbits were anesthetized with ketamine (50 mg/kg+50 mg/kg/h intramuscularly) and xylazine (10 mg/kg+10 mg/kg/h intramuscularly). […] Carotid blood flow was measured with an electromagnetic flow probe continuously beginning 30 min before the electrical stimulation and over a 90-min period after stimulation to monitor thrombosis-induced occlusion. Integrated carotid blood flow, as a percentage of pre-electrical stimulation control period, was measured by the area under the flow-time curve. […]

Substance: FXI-ASO2: control ASO CCTTCCCTGAAGGTTCCTCC (SEQ ID NO: 2), no known complementary sequence in rabbit mRNA (e[5mC]*e[5mC]*eT*eT*e[5mC]*d[5mC]*d[5mC]*dT*dG*dA*dA*dG*dG*dT*dT*e[5mC]*e[5mC]*eT*e[5mC]*e[5mC])
- thrombus weight: did not reduce thrombus weight
